Measured values from patent US8318949B2, “Organic compounds” (Novartis AG, priority 2008, dated 2012).

Legend:
[1] = target: T1, stearoyl-CoA desaturase (SCD1) (Mus musculus, UniProt P13516); test: Stearoyl-CoA desaturase inhibition, mouse liver microsomes (release of 3H2O from [9,10-3H]stearoyl-CoA); assay type: biochemical; details: 15 min incubation, 25° C., read-out: Microsomal IC50
T1 construct: Male ICR outbread mice, on a high-carbohydrate, low fat diet; from tissue; host or cells: liver microsomes of male ICR mice on a high-carbohydrate, low fat diet
T1 sequence (P13516 1-355): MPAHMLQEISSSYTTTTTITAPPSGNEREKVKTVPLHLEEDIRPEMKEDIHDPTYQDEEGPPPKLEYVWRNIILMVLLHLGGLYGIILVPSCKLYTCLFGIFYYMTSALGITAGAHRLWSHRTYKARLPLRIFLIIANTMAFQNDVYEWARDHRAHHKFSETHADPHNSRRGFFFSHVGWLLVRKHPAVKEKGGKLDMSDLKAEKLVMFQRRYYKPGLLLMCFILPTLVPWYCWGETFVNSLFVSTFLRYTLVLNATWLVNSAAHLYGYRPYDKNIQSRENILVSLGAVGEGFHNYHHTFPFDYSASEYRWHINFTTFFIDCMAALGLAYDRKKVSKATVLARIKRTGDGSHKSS
From the text: The identification of compounds of the invention as SCD inhibitors was readily accomplished using the SCD enzyme and microsomal assay procedure described in Shanklin J. and Summerville C., Proc. Natl. Acad. Sci. USA (1991), Vol. 88, pp. 2510-2514.
Measuring Stearoyl-CoA Desaturase Inhibition Activity of a Test Compound Using Mouse Liver Microsomes
The identification of compounds of the invention as SCD inhibitors was readily accomplished using the SCD microsomal assay procedure described in Shanklin J. and Summerville C., Proc. Natl. Acad. Sci. USA (1991), Vol. 88, pp. 2510-2514.
Male ICR outbread mice, on a high-carbohydrate, low fat diet, under light halothane (15% in mineral oil) anesthesia are sacrificed by exsanguination during periods of high enzyme activity. Livers are immediately rinsed with cold 0.9% NaCl solution, weighed and minced with scissors. All procedures are performed at 4° C. unless specified otherwise. Livers are homogenized in a solution (1/3 w/v) containing 0.25 M sucrose, 62 mM potassium phosphate buffer (pH 7.0), 0.15 M KCl, 15 mM N-acetyleysteine, 5 mM MgCl2, and 0.1 mM EDTA using 4 strokes of a Potter-Elvehjem tissue homogenizer. The homogenate is centrifuged at 10,400×g for 20 min to eliminate mitochondria and cellular debris. The supernatant is filtered through a 3-layer cheesecloth and centrifuged at 105,000×g for 60 min. The microsomal pellet is gently resuspended in the same homogenization solution with a small glass/teflon homogenizer and stored at −70° C. The absence of mitochondrial contamination is enzymatically assessed. The protein concentration is measured using bovine serum albumin as the standard.
Desaturase activity is measured as the release of ^3H2O from [9,10-^3H]stearoyl-CoA. Reactions per assay point conditions are as follows: 2 μL 1.5 mM stearoyl-CoA, 0.25 μL 1 mCi/mL ^3H stearoyl CoA, 10 μL 20 mM NADH, 36.75 μL 0.1 M PK buffer (K2HPO4/NaH2PO4, pH 7.2). The test compound or control solution is added in a 1 μL volume. Reactions are started by adding 50 μL of microsomes (1.25 mg/mL). The plates are mixed and after 15 min incubation on a heating block (25° C.), the reactions are stopped by the addition of 10 μL 60% PCA. An aliquot of 100 μL is then transferred to a filter plate pretreated with charcoal and the plate centrifuged at 4000 rpm for 1 minute. The flow through containing the ^3H2O released by the SCD1 desaturation reaction is added to scintillation fluid and the radioactivity measured in a Packard TopCount. The data is analysed to identify the IC50 for test compounds and reference compounds.
The activity was defined in terms of % SCD enzyme activity remaining at the desired concentration of the test compound or as the IC50 concentration. The IC50 (affinity) of the example compounds toward the stearoyl-CoA desaturase is comprised between around […] and 0.0001 μM or between around 5 μM and 0.0001 μM or between around 1 μM and 0.0001 μM.

## Cc1nc(N2C[C@@H](C)N(Cc3ccc(F)cc3)C2=O)sc1C(=O)NCc1cccnc1 [Example 2.7, (R)-2-(3-(4-Fluorobenzyl)-4-methyl-2-oxoimidazolidin-1-yl)-4-methyl-N-(pyridin-3-ylmethyl)thiazole-5-carboxamide]
[1]
  IC50: 36 nM
other
  melting point: 135 to 136 °C

## Cc1nc(N2CCN(CCC3CC3)C2=O)sc1C(=O)NCc1ccccn1 [Example 20-103, 2-(3-(2-cyclopropylethyl)-2-oxoimidazolidin-1-yl)-4-methyl-N-(pyridin-2-ylmethyl)thiazole-5-carboxamide]
[1]
  IC50: 38 nM

## Cc1nc(N2CCN(Cc3ccc(C(F)(F)F)cc3)C2=O)sc1C(=O)NCc1ccc2nccn2c1 [Example 20-22, N-(imidazo[1,2-a]pyridin-6-ylmethyl)-4-methyl-2-(2-oxo-3-(4-(trifluoromethyl)-benzyl)imidazolidin-1-yl)-thiazole-5-carboxamide]
[1]
  IC50: 709 nM

## Cc1nc(N2CCN(Cc3cccc(C(F)(F)F)c3)C2=O)sc1-c1cc[nH]n1 [Example 17.2, 1-(4-methyl-5-(1H-pyrazol-3-yl)thiazol-2-yl)-3-(3-(trifluoromethyl)benzyl)imidazolidin-2-one]
[1]
  IC50: 186 nM
other
  melting point: 209 to 214 °C

## Cc1nc(-n2cnn(Cc3ccc(F)cc3)c2=O)sc1C(=O)NCc1ccc(C(F)(F)F)nc1 [Example 20-8, 2-(1-(4-fluorobenzyl)-5-oxo-1H-1,2,4-triazol-4(5H)-yl)-4-methyl-N-((6-(trifluoromethyl)pyridin-3-yl)methyl)thiazole-5-carboxamide]
[1]
  IC50: 1720 nM

## Cc1cc(CNC(=O)c2sc(N3CCN(CC4CC4)C3=O)nc2C)no1 [Example 20-83, 2-(3-(cyclopropylmethyl)-2-oxoimidazolidin-1-yl)-4-methyl-N-((5-methylisoxazol-3-yl)methyl)thiazole-5-carboxamide]
[1]
  IC50: 11 nM

## Cc1nc(-n2cnn(Cc3cc(F)cc(F)c3)c2=O)sc1C(=O)NCc1ccccn1 [Example 20-52, 2-(1-(3,5-difluorobenzyl)-5-oxo-1H-1,2,4-triazol-4(5H)-yl)-4-methyl-N-(pyridin-2-ylmethyl)-thiazole-5-carboxamide]
[1]
  IC50: 13 nM

## Cc1nc(-n2cnn(CC3CC3(F)F)c2=O)sc1C(=O)NCc1cncs1 (centres unmarked) [Example 20-12, 2-(1-((2,2-difluorocyclopropyl)methyl)-5-oxo-1H-1,2,4-triazol-4(5H)-yl)-4-methyl-N-(thiazol-5-ylmethyl)thiazole-5-carboxamide]
[1]
  IC50: 18 nM

## Cc1nc(N2CCN(Cc3ccc(S(C)(=O)=O)cc3)C2=O)sc1C(N)=O [Example 20-133, 4-methyl-2-(3-(4-(methylsulfonyl)benzyl)-2-oxoimidazolidin-1-yl)thiazole-5-carboxamide]
[1]
  IC50: 527 nM

## Cc1nc(N2C(=O)N(Cc3ccc(F)cc3)C3CC32)sc1C(=O)NCc1cccnc1 (centres unmarked) [Example 19, 2-(4-(4-fluorobenzyl)-3-oxo-2,4-diazabicyclo[3.1.0]hexan-2-yl)-4-methyl-N-(pyridin-3-ylmethyl)thiazole-5-carboxamide]
[1]
  IC50: 1210 nM

## Cc1nc(-n2cnn(CC3CC3(F)F)c2=O)sc1C(=O)NCc1cnn(C)c1 (centres unmarked) [Example 20-76, 2-(1-((2,2-difluorocyclopropyl)methyl)-5-oxo-1H-1,2,4-triazol-4(5H)-yl)-4-methyl-N-((1-methyl-1H-pyrazol-4-yl)methyl)thiazole-5-carboxamide]
[1]
  IC50: 551 nM

## Cc1nc(N2CCN(C(C)c3ccccc3)C2=O)sc1C(=O)NCc1cncs1 (centres unmarked) [Example 20-26, 4-methyl-2-(2-oxo-3-(1-phenylethyl)-imidazolidin-1-yl)-N-(thiazol-5-yl-methyl)thiazole-5-carboxamide]
[1]
  IC50: 11 nM
